We go through 14 compounds from ChEMBL document CHEMBL1201862, “PubChem BioAssay data set” (2004).

Holding throughout (assay): inhibition of tumour cell growth, NCI panel, 48 h
Assay [1] relates to CAKI-1.
In assay [2] the test system is CCRF-CEM.
Assay [3] deals with HCT-116.
Assay [4] has as its system K562.
In assay [5] the test system is KM12.
Assay [6] deals with MDA-N.
Assay [7] has as its system RXF 393.
Assay [8] has as its system SF-295.
The test system of assay [9] is SK-MEL-2.
Assay [10] deals with SNB-19.
Assay [11] deals with SNB-75.
The subject of assay [12] is SR.
Assay [13] deals with TK-10.
In assay [14] the test system is U-251.
The test system of assay [15] is DU-145.
The test system of assay [16] is Hs-578T.
Assay [17] deals with MCF7.
Assay [18] relates to MDA-MB-231.
Assay [19] concerns NCI/ADR-RES.

SMILES strings stand for the structures.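 Exposure lasted 48 hours, with cells grown in 96-well plates and compounds tested at five concentrations. At the GI50, growth is halved.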 The source made the active and inactive calls. Cut-off read from the data, not from the text of the source: active = GI50 up to about 1.1 µM and inactive = higher. A value given as a limit tells only on which side of the number the result lay.

Turning to `CC(C)c1cccc(=O)c(O)c1`, the GI50 is 1.64 µM (inactive) in assay [1]; 0.845 µM (active) in assay [2]; 1.72 µM (inactive) in [3]; 2.21 µM (inactive) in assay [4]; 8.34 µM (inactive) in [5]; 2.18 µM (inactive) in assay [6]. For the same compound, the GI50 in [7] is 0.299 µM (active); in assay [8] it was 3.39 µM (inactive); in assay [9], 5.68 µM (inactive); in assay [10], 7.24 µM (inactive); in assay [11], 6.18 µM (inactive); in assay [12] it was 0.959 µM (active). In addition, the GI50 in assay [13] was 1.25 µM (inactive); in [14], 0.411 µM (active).

With `CC(=O)O[C@@H]1[C@H](OC2CCCCC2(c2ccccc2)c2ccccc2)O[N+]([O-])=CC12CCCCC2` (some centres not stated), the GI50 in assay [1] was 14.4 µM (inactive); in [2], 0.17 µM (active); in assay [15], 18.1 µM (inactive); in [3], 17.6 µM (inactive); in assay [16], 19.2 µM (inactive); in [4] it was 54.2 µM (inactive). Besides, the GI50 in assay [5] was 17.2 µM (inactive); in assay [17] it was 18.2 µM (inactive); in [18], 15.4 µM (inactive); in assay [6] it was 20.2 µM (inactive); in assay [19], 15.9 µM (inactive); in [7] it was 17.8 µM (inactive). For the same compound, the GI50 in assay [8] is 15.7 µM (inactive); in assay [11] it was 15.9 µM (inactive); in [12], 32 µM (inactive); in [13] it was 16.7 µM (inactive); in assay [14], 17 µM (inactive).

On to `COC1C=CC(C(=O)[N+]2=Cc3[nH]c4ccccc4c3CC2)O1` (configuration not stated), for which the GI50 in assay [1] is > 100 µM (inactive); in assay [2] it was 27.6 µM (inactive); in assay [3], > 100 µM (inactive); in assay [4], 37.2 µM (inactive); in assay [5] it was > 100 µM (inactive); in [7] it was 61.5 µM (inactive). For the same compound, the GI50 in assay [8] is > 100 µM (inactive); in [9] it was > 100 µM (inactive); in assay [10], > 100 µM (inactive); in assay [11], 75.3 µM (inactive); in assay [12] it was 30.5 µM (inactive); in assay [13], > 100 µM (inactive). Further, in assay [14], the GI50 is 37.9 µM (inactive).

Take `[N-]=[N+]=NC1(Cc2ccccc2)C(=O)c2cccc3c2N(CCC3)C1=O` (configuration not stated): the GI50 in assay [1], in assay [2], in assay [3], in [4], in [5] and in assay [7] was > 100 µM (inactive) each time. Moreover, the GI50 in assay [8], in [9], in assay [11], in assay [12], in assay [13] and in assay [14] was > 100 µM (inactive) each time.

In the case of `Cc1[nH]c2ccccc2c1C1Cc2ccccc2N1C(=O)/C=C\C(=O)O` (configuration not stated), the GI50 was 24.8 µM (inactive) in assay [1]; 31 µM (inactive) in assay [2]; 47.1 µM (inactive) in assay [3]; 35.6 µM (inactive) in [4]; 32.6 µM (inactive) in [5]; 30.9 µM (inactive) in [7]. The GI50 is 45.6 µM (inactive) in assay [8]; 21.8 µM (inactive) in assay [9]; 23.3 µM (inactive) in assay [10]; 24.3 µM (inactive) in assay [11]; 29.6 µM (inactive) in assay [12]; 45.8 µM (inactive) in assay [13]. In addition, in [14], the GI50 is 29.5 µM (inactive).

For `Clc1c(Cl)c(Cl)c2c(nnn2C2CCCO2)c1Cl` (configuration not stated), the GI50 in [1] was 31.9 µM (inactive); in assay [2] it was 26.4 µM (inactive); in assay [15] it was 51.5 µM (inactive); in assay [3], 39.1 µM (inactive); in assay [16], 25.8 µM (inactive); in assay [4], 24.3 µM (inactive). Besides, the GI50 in assay [17] is 33.9 µM (inactive); in assay [18], 43.5 µM (inactive); in [6], 27.7 µM (inactive); in assay [19], 31.7 µM (inactive); in assay [7], 44.4 µM (inactive); in [8], 36.9 µM (inactive). Further, the GI50 was 26.5 µM (inactive) in assay [9]; 12.9 µM (inactive) in assay [11]; 32.9 µM (inactive) in assay [12]; 65.3 µM (inactive) in [13]; 33.8 µM (inactive) in assay [14].

Consider `NNC(=S)N/N=C/C(Cl)=C(\Cl)C(=O)O`, for which the GI50 in assay [1], in assay [2], in assay [3], in assay [4], in assay [7] and in assay [8] was > 100 µM (inactive) each time. Besides, the GI50 in [9], in [10], in assay [11], in assay [12], in [13] and in assay [14] was > 100 µM (inactive) in each case.

Turning to `NNC(=O)/C(=C/c1cccc([N+](=O)[O-])c1)NC(=O)c1ccccc1`, the GI50 in assay [1], in assay [2], in [3], in [4], in assay [5] and in [7] was > 100 µM (inactive) in each case. Moreover, the GI50 in assay [8], in assay [9], in assay [10], in assay [11], in assay [12] and in assay [13] was > 100 µM (inactive) each time. Further, in assay [14], the GI50 is > 100 µM (inactive).

Regarding `CCOc1ccc(Nc2nc3c(s2)C(=O)c2ccccc2C3=O)cc1`, the GI50 is 8.41 µM (inactive) in [1]; 7.82 µM (inactive) in [2]; 14.2 µM (inactive) in assay [15]; 13.2 µM (inactive) in assay [3]; 12.1 µM (inactive) in [16]; 3.36 µM (inactive) in [4]. The GI50 is 13.7 µM (inactive) in [5]; 4.81 µM (inactive) in assay [17]; 2.33 µM (inactive) in [18]; 1.96 µM (inactive) in assay [6]; 12.8 µM (inactive) in assay [7]; 10.7 µM (inactive) in assay [8]. For the same compound, the GI50 in assay [9] is 15.1 µM (inactive); in assay [10] it was 15.7 µM (inactive); in assay [11] it was 11.1 µM (inactive); in assay [13] it was 20.8 µM (inactive); in assay [14] it was 7.64 µM (inactive).

Take `CN(C)CCC(=O)c1ccccc1`: the GI50 in [1] was 18.9 µM (inactive); in [2], 23.4 µM (inactive); in [3] it was 28.4 µM (inactive); in [4], 27.6 µM (inactive); in assay [5], 32.5 µM (inactive); in assay [7], 38.3 µM (inactive). The GI50 was > 100 µM (inactive) in assay [8]; > 62.8 µM (inactive) in assay [9]; > 100 µM (inactive) in assay [10]; > 59.4 µM (inactive) in assay [11]; 35.1 µM (inactive) in assay [12]; > 56.5 µM (inactive) in assay [13]. Further, the GI50 in assay [14] is > 56.2 µM (inactive).

For the compound `COC1OC(CBr)C(OC(=O)c2ccccc2)C(OS(=O)(=O)c2ccc(C)cc2)C1Br` (configuration not stated), the GI50 in assay [1], in [2], in assay [3], in assay [4], in assay [5] and in assay [7] was > 100 µM (inactive) each time. In addition, the GI50 in assay [8], in [9], in assay [10], in assay [12], in assay [13] and in [14] was > 100 µM (inactive) in each case.

Turning to `Cc1cc(Br)ccc1/N=N/c1c(C)nn(-c2ccccc2)c1-c1ccccc1`, the GI50 was 71.3 µM (inactive) in assay [1]; 21.2 µM (inactive) in [2]; 9.08 µM (inactive) in [3]; 17 µM (inactive) in assay [4]; 57 µM (inactive) in assay [5]; 33.3 µM (inactive) in assay [7]. Also, the GI50 in assay [8] is 75.2 µM (inactive); in [9] it was > 100 µM (inactive); in assay [10], > 100 µM (inactive); in [11] it was > 100 µM (inactive); in assay [12] it was > 100 µM (inactive); in assay [13] it was > 100 µM (inactive). The GI50 in assay [14] was 27 µM (inactive).

Turning to `Nc1nc(O)c2nc(N)n(Cc3ccccc3)c2n1`, the GI50 in assay [1], in assay [2], in assay [3], in assay [4], in assay [5] and in [7] was > 100 µM (inactive) each time. In addition, the GI50 in [8], in [9], in [10], in assay [11], in assay [12] and in [13] was > 100 µM (inactive) throughout. Also, the GI50 in [14] was > 100 µM (inactive).

`N/C(=N\O)N/N=C/c1cccc(F)c1`: the GI50 in assay [1] is 27.7 µM (inactive); in assay [2] it was 23.8 µM (inactive); in [3], 41.6 µM (inactive); in [4], 19.4 µM (inactive); in assay [5], 34.1 µM (inactive); in assay [7], 24.8 µM (inactive). Further, the GI50 in [8] is 37.8 µM (inactive); in assay [9], 67.8 µM (inactive); in [10], > 100 µM (inactive); in [11] it was 52.6 µM (inactive); in assay [12], 21.9 µM (inactive); in [13], 66.5 µM (inactive). In assay [14], the GI50 is 36.1 µM (inactive).
